Data taken from patent publication US20090036461A1, “Use of Azabicyclo Hexane Derivatives” (priority 2005, published 2009).
Entries after “also recorded” stand apart in the source; their conditions may differ.

Assays:
D3 = D3 (Homo sapiens, UniProt P35462); experiment: functional pKi (fpKi) at D3, comparison of separated enantiomers; assay type: biochemical; settings: difference in fpKi between the two separated enantiomers of the same example
[1] = system: Female Sprague Dawley rats; experiment: stress-induced food intake, animal model for binge eating (diet restriction cycles + foot shock); assay type: in vivo
Excerpt: Dieting is the strongest predictor of overeating in response of stress. In this specific case, binge eating or binge/purge behaviours are recognized as key features of the human diseases (bulimia nervosa or anorexia, respectively). Two critical factors seem to modulate the production of binge eating: a history of food restriction and access of high palatable (HP) food (dense in fat and sugar) and the interaction with environmental stress. Based on these premises, preclinical models can be developed to explore the potential therapeutic effect of test compounds on binge eating. One model which may be used is described by Hagan et al (Hagan, M. M. et al., Physiol and Beh 77 (2002): 45-54).
Slight modifications such as those below may be applied to their model, for example: • Instrument to deliver FS: Passive Avoidance (Gemini Avoidance System, Coubourn Instrument, San Diego) may be used instead of the 4 closed runways with metal bar floors (Coulbourn Instruments Habitest System, Allentown, Pa.). • Refeeding: 4 days instead of 6 days • HP food: Baiocchi® (Barilla) instead of Oreo® biscuits • For the submission of the animals to the pharmacological treatment, see: Placidi et al., Int J Eat Disord 2004 36 (3) 328-41
Based on the model by Hagan et al, and incorporating the above changes, a model for binge eating may be set up as follows. Female Sprague Dawley rats (7 weeks old) can be single housed at 21±1 C and under a 12 h/12 h light/dark cycle (dark phase: 18:00-06:00) for all the period of the experiment. Before beginning, rats can be habituated to these conditions for 7 days. The rats can then be divided into 2 groups (16 animals/group). One group may take food ad lib (non restricted group: NR) for the 24 days of the experiment, while the other (Restricted Group: R) may receive a restricted diet (66% of the quantity food intake that the other control group was eating) during 4 days, and eat ad lib for the following 4 days. This cycle can be repeated 3 times. Following the last day of refeeding, each group can be subdivided in two. Eight animals of group NR and 8 animals of group R can receive a stress stimulus (4 Foot Shocks (FS) of 0.6 mA separated by 15 sec intervals) while the other 2 subgroups can remain in the same cage where FS is delivered for the same period of time, but without receiving the FS (no shocked: NS). The 4 groups are S/NR, NS/NR, S/R and NS/R. Immediately following time in the shock apparatus, rats can be submitted to a pharmacological treatment (administration of the test compound or of the vehicle) and then be returned to the animal colony. A pre-measured amount of pellets or HP food (Baiocchie) can be put in each cage, and food intake measured after 4 h. Food intake can be expressed in kcal.
Rationale—The effects of the title compound, prepared in an analogous way with Example 123, were tested in the animal model discussed above. The aim of the present study was to assess the effect of this compound in animals that received 3 cycles of diet (restricted:R) and stress (shocked) conditions similar to binge eating in humans.
Methods—Female Sprague Dawley rats (7-week old) were single housed at 21±1° C. and under a 12 h/12 h light/dark cycle (dark phase: 18:00-06:00) for all the entire experimental period. Rats received a restricted diet (66% of the food intake vs. control group) during 4 days, and ate ad libitum for the following 4 days. This cycle was repeated 3 times. Additionally, two other groups were eating ad libitum (not restricted: NR) and received the shock (NR/S). Following the last day of refeeding, the animals received a stress stimulus (4 Foot Shocks (FS) of 0.6 mA separated by 15 sec intervals) and received vehicle or the title compound (0.03, 0.3 or 3 mg/kg i.p.) immediately after the shock. These were the S/R (shocked/Restricted) rats. The S/NR rats received the shock and vehicle or the title compound (prepared in an analogous way with Example 123; 3 mg/kg i.p.) in the same way as the S/R groups. […]

[2] = S/NR (shocked/not restricted) rats, 3 mg/kg i.p. after foot shock
[3] = S/R (shocked/restricted) rats, 0.03 mg/kg i.p. after foot shock
[4] = S/R (shocked/restricted) rats, 0.3 mg/kg i.p. after foot shock
[5] = S/R (shocked/restricted) rats, 3 mg/kg i.p. after foot shock

D3, sequence (P35462 whole entry): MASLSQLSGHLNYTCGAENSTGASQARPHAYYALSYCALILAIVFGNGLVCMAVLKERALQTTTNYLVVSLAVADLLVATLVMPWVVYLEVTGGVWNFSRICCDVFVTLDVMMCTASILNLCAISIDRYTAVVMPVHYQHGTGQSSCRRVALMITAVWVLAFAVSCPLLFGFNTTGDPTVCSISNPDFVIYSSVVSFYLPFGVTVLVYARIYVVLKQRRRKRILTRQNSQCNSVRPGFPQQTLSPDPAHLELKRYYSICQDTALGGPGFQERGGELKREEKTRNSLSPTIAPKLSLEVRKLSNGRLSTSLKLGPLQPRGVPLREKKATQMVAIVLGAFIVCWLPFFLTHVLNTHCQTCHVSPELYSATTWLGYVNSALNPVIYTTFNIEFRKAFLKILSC

Row | SMILES | fpKi (D3) higher than the other enantiomer (D3) | further results
1 | Cc1ccc2c(-c3nnc(SCCCN4C[C@@H]5C[C@]5(c5ccc(C(C)(C)C)cc5)C4)n3C)cccc2n1 (single isomer, unassigned) [Example 5 Enantiomer 2] | > 0.9 log-unit | –
2 | Cc1ncoc1-c1nnc(SCCCN2C[C@]3(C)C[C@@]3(c3cccc(Cl)c3)C2)n1C (single isomer, unassigned) [Example 22 Enantiomer 1] | > 1 log-unit | –
3 | Cc1ncoc1-c1nnc(SCCCN2C[C@@H]3C[C@]3(c3cccc(C(F)(F)F)c3F)C2)n1C (single isomer, unassigned; enantiomer 2) [Example 111 Enantiomer 2] | > 1 log-unit | –
4 | Cc1ncoc1-c1nnc(SCCCN2C[C@@H]3C[C@]3(c3ccc(Br)cc3)C2)n1C (single isomer, unassigned) [Example 9 Enantiomer 1] | > 1 log-unit | –
5 | Cc1ncoc1-c1nnc(SCCCN2C[C@@H]3C[C@]3(c3ccc(F)cc3)C2)n1C (single isomer, unassigned) [Example 21 Enantiomer 1] | > 1 log-unit | –
6 | Cc1ccc2c(-c3nnc(SCCCN4C[C@@H]5C[C@]5(c5ccc(Cl)c(Cl)c5)C4)n3C)cccc2n1 (single isomer, unassigned) [Example 4 Enantiomer 1] | > 0.6 log-unit | –
7 | Cc1ncoc1-c1nnc(SCCCN2C[C@@H]3C[C@]3(c3cc(F)cc(C(F)(F)F)c3)C2)n1C (single isomer, unassigned; enantiomer 1) [Example 110 Enantiomer 1] | > 1 log-unit | –
8 | COc1ccc([C@]23C[C@H]2CN(CCCSc2nnc(-c4ocnc4C)n2C)C3)cc1C(C)=O (single isomer, unassigned) [Example 19 Enantiomer 1] | > 1 log-unit | –
9 | Cc1ncoc1-c1nnc(SCCCN2C[C@@H]3C[C@]3(c3cccc(F)c3)C2)n1C (single isomer, unassigned) [Example 23 Enantiomer 1] | > 1 log-unit | –
10 | Cc1ccc2c(-c3nnc(SCCCN4C[C@@H]5C[C@]5(c5ccc(Br)cc5)C4)n3C)cccc2n1 (single isomer, unassigned) [Example 2 Enantiomer 2] | > 1 log-unit | –
11 | Cc1ncoc1-c1nnc(SCCCN2C[C@@H]3C[C@]3(c3ccc(Cl)cc3)C2)n1C (single isomer, unassigned) [Example 20 Enantiomer 1] | > 1 log-unit | –
12 | Cc1ccc2c(-c3nnc(SCCCN4C[C@@H]5C[C@]5(c5ccccc5)C4)n3C)cccc2n1 (single isomer, unassigned) [Example 3 Enantiomer 2] | > 1 log-unit | –
13 | Cc1ncoc1-c1nnc(SCCCN2C[C@@H]3C[C@]3(c3ccc(C(F)(F)F)cc3F)C2)n1C.O=C(O)[C@H](O)[C@@H](O)C(=O)O [Example 123, (1S,5R)-1-[2-Fluoro-4-(trifluoromethyl)phenyl]-3-(3-{[4-methyl-5-(4-methyl-1,3-oxazol-5-yl)-4H-1,2,4-triazol-3-yl]thio}propyl)-3-azabicyclo[3.1.0]hexane tartrate] | – | inhibitory effect in non-stressed animals, in respect to controls ([1]; 3 mg/kg i.p., result in words, tartrate): did not show any inhibitory effect; also recorded: No significant effects; Chow Intake after 4 h [1, 2]: 1.92 ± 0.66 kcal; HP Intake after 4 h [1, 2]: 8.73 ± 2.75 kcal; Total Food Intake after 4 h [1, 2]: 10.65 ± 2.75 kcal; Chow Intake after 4 h [1, 3]: 1.95 ± 0.58 kcal; HP Intake after 4 h [1, 3]: 17.11 ± 2.49 kcal; Total Food Intake after 4 h [1, 3]: 19.06 ± 2.44 kcal; Chow Intake after 4 h [1, 4]: 2.09 ± 0.74 kcal; HP Intake after 4 h [1, 4]: 14.44 ± 2.15 kcal; Total Food Intake after 4 h [1, 4]: 16.54 ± 1.94 kcal; Chow Intake after 4 h [1, 5]: 2.62 ± 0.79 kcal; HP Intake after 4 h [1, 5]: 8.89 ± 1.90 kcal; Total Food Intake after 4 h [1, 5]: 11.51 ± 1.99 kcal; effect on total Food Intake ([1]; S/R rats, highest dose of 3 mg/kg, 1-way ANOVA, result in words): significantly decreased total food intake; effect on HP intake ([1]; S/R rats, highest dose of 3 mg/kg, Dunnett's p<0.01, result in words): significantly decreased HP intake; effect on Chow intake ([1]; S/R rats, highest dose of 3 mg/kg, Dunnett's p<0.05, result in words): significantly decreased chow Intake; effect on stress-induced overeating ([1]; result in words): significant inhibitory effect on stress-induced overeating
14 | COc1ccc([C@]23C[C@H]2CN(CCCSc2nnc(-c4cccc5nc(C)ccc45)n2C)C3)cc1 (single isomer, unassigned) [Example 1 Enantiomer 1] | > 1 log-unit | –

Second part, led by results:

Row | fpKi (D3) higher than the other enantiomer (D3) | SMILES | further results
15 | > 1 log-unit | Cc1ncoc1-c1nnc(SCCCN2C[C@@H]3C[C@]3(c3ccc(C(F)(F)F)cn3)C2)n1C (single isomer, unassigned) [Example 96 Enantiomer 2] | –
16 | > 1 log-unit | Cn1c(SCCCN2C[C@@H]3C[C@]3(c3ccc(OC(F)(F)F)cc3)C2)nnc1C1CCOCC1 (single isomer, unassigned) [Example 33 Enantiomer 1] | –
17 | > 1 log-unit | COc1cccc([C@]23C[C@H]2CN(CCCSc2nnc(-c4ocnc4C)n2C)C3)c1 (single isomer, unassigned) [Example 24 Enantiomer 1] | –
18 | > 1 log-unit | Cc1ncoc1-c1nnc(SCCCN2C[C@@H]3C[C@]3(c3ccc4c(cnn4C)c3)C2)n1C (single isomer, unassigned) [Example 74 Enantiomer 1] | –
19 | > 1 log-unit | Cc1nc2cc([C@]34C[C@H]3CN(CCCSc3nnc(-c5ocnc5C)n3C)C4)ccc2s1 (single isomer, unassigned) [Example 72 Enantiomer 1] | –
20 | > 2 log-unit | Cc1ncoc1-c1nnc(SCCCN2C[C@]3(C)C[C@@]3(c3ccc(C(F)(F)F)c(F)c3)C2)n1C (single isomer, unassigned) [Example 61 Enantiomer 1] | –
21 | > 1 log-unit | Cc1ncoc1-c1nnc(SCCCN2C[C@@H]3C[C@]3(c3ccc(OC(F)(F)F)cc3)C2)n1C (single isomer, unassigned; enantiomer 1) [Example 30 Enantiomer 1] | –
22 | > 1 log-unit | CCC(=O)c1cc([C@]23C[C@H]2CN(CCCSc2nnc(-c4ocnc4C)n2C)C3)ccc1OC (single isomer, unassigned) [Example 71 Enantiomer 1] | –
23 | > 1 log-unit | Cc1ncoc1-c1nnc(SCCCN2C[C@@H]3C[C@]3(c3cc(C(F)(F)F)ccc3F)C2)n1C (single isomer, unassigned) [Example 36 Enantiomer 2] | –
